This series deals with dogs with spontaneous malignancies (lymphoma). The series can be described thus: Phase Ia clinical trial of SG2000 in dogs with spontaneous malignancies (lymphoma patients). In kind it is in vivo. Also noted: key to Response during first cycle / Response to SG2000: Complete response (CR) is defined as the disappearance of all target lesions; Partial response (PR) is defined as a >30% decrease in the sum of the longest dimensions of the target lesions; Progressive disease (PD) is defined as a >20% increase in the sum of the longest dimensions of the target lesions; Stable Disease (SD) is defined as neither sufficient shrinkage to qualify for PR nor sufficient increase to qualify for PD. As to the method:
A Phase Ia clinical trial in dogs with spontaneous malignancies was undertaken at the Royal Veterinary College, University of London, UK.
was supplied in 5 mL vials, wherein each mL contains 10 micrograms of SG2000 and 47.1 mg of dimethylacetamide. For doses below 100 microgram, the required volume of SG2000 was diluted to 10 ml with normal saline (0.9% sodium chloride) prior to administration. If the total dose exceeds 100 micrograms, the supplied solution was used without prior dilution with normal saline.
SG2000 was administered as a slow intravenous infusion into a peripheral vein. The drug was be administered slowly IV over 20 minutes via a peripheral vein catheter. If the drug has been diluted to a total volume of 10 ml, this will mean injecting 0.5 ml per minute.
The following concomitant/supportive medications permitted during the trial were:
The following definitions are used in reporting the results:
Complete response (CR) is defined as the disappearance of all target lesions.
Partial response (PR) is defined as a >30% decrease in the sum of the longest dimensions of the target lesions, taking as a reference the baseline sum longest dimensions.
Progressive disease (PD) is defined as a >20% increase in the sum of the longest dimensions of the target lesions, taking as a reference the smallest sum of the longest dimensions recorded since the treatment started, or the appearance of 1 or more new lesions.
Stable Disease (SD) is defined as neither sufficient shrinkage to qualify for PR nor sufficient increase to qualify for PD, taking as a reference the smallest sum of the longest dimensions since the treatment started.
Objective Response Rate (ORR) is defined as the number of patients with confirmed complete or partial responses, expressed as a percentage of all patients treated with SG2000
Time to Progression (TTP) is defined as the period of time from first date of treatment to the date that the patient is withdrawn because of clinical or imaging-based progressive disease, or death from any cause (including euthanasia).
“Duration of Response” is defined for patients with an objective response only.
This patient, diagnosed with multicentric B-cell high grade lymphoma, had been previously treated with 5 protocols. This patient was treated for a first cycle (3 weeks) with IV 1.75 μg/kg SG2000 solution with a single weekly dose. […] The second cycle of treatment followed with IV 2.00 μg/kg SG2000 with a single weekly dose. The third cycle of weekly dosing was begun after a single week break, with doses of 2.00 μg/kg SG2000, 1.75 μg/kg SG2000 and 2.00 μg/kg SG2000.
Patients 2 to 9 were treated as follows, with the stated amount of SG2000 (μg/kg), with a 3 weekly cycle of weekly treatments, and a single break week between cycles.
Patients 2, 4-5 were diagnosed with multicentric B-cell high grade lymphoma, Patients 3, 8 and 9 were diagnosed with multicentric B-cell intermediate grade lymphoma and Patient 6 was diagnosed with multicentric T-cell high grade lymphoma. Patient 7 was diagnosed with multicentric and mediastinal high grade lymphoma, which was suspected to be to be T-cell lymphoma.

Setting [1] is: Patient 1, dog, multicentric B-cell high grade lymphoma.
The mark [2] stands for this setting: Patient 1, dog, multicentric B-cell high grade lymphoma, IV 1.75-2.00 μg/kg weekly, 3 cycles.
[3] abbreviates: dogs with multicentric lymphoma, Patients 2 to 9, IV 1.5-2 μg/kg weekly.

Values joined by “and” are separate entries in the source; they are usually repeats but may differ in a detail not shown here. Identical values can stand only once.

Take `C=C1C[C@H]2C=Nc3cc(OCCCOc4cc5c(cc4OC)C(=O)N4CC(=C)C[C@H]4C=N5)c(OC)cc3C(=O)N2C1` [SG2000]: under setting [1], the “Progression free interval with treatment” value worked out at 111 days and the “Survival time since the start of the SG2000 trial” value is 126 days. Also, under setting [2], the “Patient response at the end of the planned 3 cycles” value is recorded as “PD (Progressive disease (PD) is defined as a >20% increase in the sum of the longest dimensions of the target lesions)” and the “Toxicity at the end of the planned 3 cycles” value is given as “grade 4 anaemia”. For the same molecule, the “Disease course in the planned three week break after first cycle” value (Patient 1, dog, multicentric B-cell high grade lymphoma, after first cycle IV 1.75 μg/kg weekly) is on record as “the disease progressed”. In addition, where the note is “Patient 1, dog, multicentric B-cell high grade lymphoma, first cycle (3 weeks) IV 1.75 μg/kg single weekly dose”, the “Response during first cycle” value is “SD”. Also, the “Survival time from diagnosis” value (Patient 1, dog, multicentric B-cell high grade lymphoma, previously treated with 5 protocols) worked out at 408 days. Further, under setting [3], the Progression free interval was 10 d (2×) and 56 d and 54 d and 7 d and 158 d and 43 d; the “Survival time from SG2000 start” value is 24 days and 74 days and 16 days and 95 days and 8 days and 195 days and 49 days; the “Survival time from diagnosis” value is 31 days and 186 days and 252 days and 336 days and 141 days and 811 days and 138 days. The “Response to SG2000” value (dogs with multicentric lymphoma, Patients 2 to 9, IV 1.5-2 μg/kg weekly, 3 weekly cycles) was “PD (Progressive disease (PD) is defined as a >20% increase in the sum of the longest dimensions of the target lesions) (3×) and SD (2×) and PR (Partial response (PR) is defined as a >30% decrease in the sum of the longest dimensions of the target lesions) (2×) and CR”.

Values taken from patent US20170107235A1, “PYRROLOBENZ[…] FOR TREATING LYMPHOMA” (ADC PRODUCTS (UK) LIMITED, priority 2014, published 2017).
